# Activity calls are given as the source filed them.
# What was measured:
# [1] = Inhibition of rat Na+ channel site 2
# [2] = Inhibition of rat chloride channel
# [3] = Inhibition of rat phospholipase C
# [4] = Inhibition of rat K+ATP channel
# [5] = target: T1, Voltage-gated L-type calcium channel (Rattus norvegicus, UniProt P22002+Q02485+P27732); assay: Inhibition of rat L-type Ca2+ channel verapamil site
# [6] = Inhibition of rat 5-HT receptor
# [7] = system: Rattus norvegicus; assay: Antiallodynic activity against von Frey hair mechanically stimulated neuropathic pain in intrathecally dosed Sprague-Dawley rat assessed as increase of response threshold per site after 20 mins; assay type: functional
# [8] = system: Rattus norvegicus; assay: Antiallodynic activity against von Frey hair mechanically stimulated neuropathic pain in intrathecally dosed Sprague-Dawley rat assessed as assessed as minimum effective dose to increase of response threshold per site after 20 mins; assay type: functional
# [9] = system: Rattus norvegicus; assay: Antiallodynic activity against von Frey hair mechanically stimulated neuropathic pain in Sprague-Dawley rat assessed as increase of response threshold per site at 0.55 to 55 nmol/site administered intrathecally after 1 hr; assay type: functional, organism-based
# [10] = system: Rattus norvegicus; assay: Antiallodynic activity against von Frey hair mechanically stimulated neuropathic pain in Sprague-Dawley rat assessed as assessed as minimum effective dose to increase of response threshold per site at 0.55 to 55 nmol/site administered intrathecally after 1 hr; assay type: functional, organism-based
# [11] = system: Rattus norvegicus; assay: Antiallodynic activity against von Frey hair mechanically stimulated neuropathic pain in Sprague-Dawley rat assessed as increase of response threshold per site at 0.55 to 170 nmol/site, icv after 1 hr; assay type: functional, organism-based
# [12] = system: Rattus norvegicus; assay: Antiallodynic activity against von Frey hair mechanically stimulated neuropathic pain in Sprague-Dawley rat assessed as assessed as minimum effective dose to increase of response threshold per site at 0.55 to 170 nmol/site, icv after 1 hr; assay type: functional, organism-based
# [13] = system: Rattus norvegicus; assay: Antiallodynic activity against von Frey hair mechanically stimulated neuropathic pain in Sprague-Dawley rat assessed as increase of response threshold per site at 0.55 to 170 nmol/site, icv after 20 mins; assay type: functional, organism-based
# [14] = system: Rattus norvegicus; assay: Antiallodynic activity against von Frey hair mechanically stimulated neuropathic pain in Sprague-Dawley rat assessed as assessed as minimum effective dose to increase of response threshold per site at 0.55 to 170 nmol/site, icv after 20 mins; assay type: functional, organism-based
# [15] = system: Rattus norvegicus; assay: Antiallodynic activity against von Frey hair mechanically stimulated neuropathic pain in Sprague-Dawley rat assessed as effect on allodynia in contralateral paw at 0.55 to 170 nmol/site administered intrathecally after 20 mins; assay type: functional, organism-based
# [16] = system: Rattus norvegicus; assay: Antiallodynic activity against von Frey hair mechanically stimulated neuropathic pain in Sprague-Dawley rat assessed as effect on allodynia in contralateral paw at 0.55 to 170 nmol/site administered intrathecally after 1 hr; assay type: functional, organism-based
# [17] = system: Rattus norvegicus; assay: Antiallodynic activity against von Frey hair mechanically stimulated neuropathic pain in icv dosed Sprague-Dawley rat assessed as decrease of response threshold in contralateral paw after 20 mins; assay type: functional, organism-based
# [18] = system: Rattus norvegicus; assay: Antiallodynic activity against von Frey hair mechanically stimulated neuropathic pain in icv dosed Sprague-Dawley rat assessed as decrease of response threshold in contralateral paw after 1 hr; assay type: functional, organism-based
# [19] = Stimulation of rat adenylate cyclase
# [20] = target: T2, Nociceptin receptor (Homo sapiens, UniProt P41146); assay: biochemical
# [21] = Inhibition of rat N-type Ca2+ channel
# [22] = Inhibition of rat choline transporter
# [23] = system: Rattus norvegicus; assay: Antiallodynic activity against von Frey hair mechanically stimulated neuropathic pain in Sprague-Dawley rat assessed as increase of response threshold at 1 to 30 mg/kg, sc after 30 mins to 4 hrs; assay type: functional, organism-based
# [24] = system: Rattus norvegicus; assay: Antiallodynic activity against von Frey hair mechanically stimulated neuropathic pain in Sprague-Dawley rat assessed as assessed as minimum effective dose to increase of response threshold at 1 to 30 mg/kg, sc after 30 mins to 4 hrs; assay type: functional, organism-based
# [25] = system: Rattus norvegicus; assay: Antiallodynic activity against von Frey hair mechanically stimulated neuropathic pain in Sprague-Dawley rat assessed as effect on allodynia in contralateral paw at 1 to 30 mg/kg, sc after 30 mins to 4 hrs; assay type: functional, organism-based
# [26] = target: T2, Nociceptin receptor
# [27] = target: Mu-type opioid receptor (Homo sapiens, UniProt P35372)
# [28] = target: Kappa-type opioid receptor (Homo sapiens, UniProt P41145)
# [29] = in vitro; settings: human, liver microsomes
# [30] = target: Tyrosine 3-monooxygenase (Rattus norvegicus, UniProt P04177); assay: Inhibition of rat tyrosine hydroxylase
# [31] = Inhibition of rat GABA transporter
# [32] = target: Glutamate NMDA receptor; assay: Inhibition of rat NMDA receptor; assay type: protein-complex assay
# [33] = target: T1, Voltage-gated L-type calcium channel; assay: Inhibition of rat L-type Ca2+ channel dihydropyridine site
# T2 sequence (P41146 whole entry): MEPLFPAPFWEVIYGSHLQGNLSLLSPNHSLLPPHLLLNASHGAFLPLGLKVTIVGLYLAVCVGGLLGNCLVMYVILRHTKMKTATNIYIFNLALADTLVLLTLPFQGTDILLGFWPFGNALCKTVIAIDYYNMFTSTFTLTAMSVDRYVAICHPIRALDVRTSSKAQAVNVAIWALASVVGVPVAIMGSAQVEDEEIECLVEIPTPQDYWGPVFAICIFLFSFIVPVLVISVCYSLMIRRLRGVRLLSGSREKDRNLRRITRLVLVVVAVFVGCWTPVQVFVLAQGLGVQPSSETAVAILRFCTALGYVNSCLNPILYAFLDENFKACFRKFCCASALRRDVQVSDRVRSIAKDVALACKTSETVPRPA
# Mu-type opioid receptor, sequence (P35372 whole entry): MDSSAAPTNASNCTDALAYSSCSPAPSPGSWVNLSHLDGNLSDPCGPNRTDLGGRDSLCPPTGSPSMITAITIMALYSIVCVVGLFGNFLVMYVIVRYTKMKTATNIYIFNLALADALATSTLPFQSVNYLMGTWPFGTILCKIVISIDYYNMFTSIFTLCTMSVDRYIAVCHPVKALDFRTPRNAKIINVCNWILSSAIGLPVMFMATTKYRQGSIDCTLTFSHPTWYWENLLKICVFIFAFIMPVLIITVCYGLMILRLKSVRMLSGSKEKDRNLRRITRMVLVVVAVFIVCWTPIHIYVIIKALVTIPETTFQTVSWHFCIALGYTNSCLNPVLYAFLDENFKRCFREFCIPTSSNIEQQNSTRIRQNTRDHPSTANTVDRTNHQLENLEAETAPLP
# Kappa-type opioid receptor, sequence (P41145 whole entry): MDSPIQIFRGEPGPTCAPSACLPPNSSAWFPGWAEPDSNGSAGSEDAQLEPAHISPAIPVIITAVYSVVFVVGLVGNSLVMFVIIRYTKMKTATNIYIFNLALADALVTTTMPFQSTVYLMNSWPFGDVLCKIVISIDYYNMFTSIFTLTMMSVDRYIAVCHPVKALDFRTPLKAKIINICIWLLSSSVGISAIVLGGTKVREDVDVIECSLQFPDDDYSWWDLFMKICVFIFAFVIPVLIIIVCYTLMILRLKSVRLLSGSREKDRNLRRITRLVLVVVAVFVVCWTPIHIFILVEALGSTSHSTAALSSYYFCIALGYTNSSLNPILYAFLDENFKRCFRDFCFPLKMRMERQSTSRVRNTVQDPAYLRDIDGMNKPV
# Tyrosine 3-monooxygenase, sequence (P04177 whole entry): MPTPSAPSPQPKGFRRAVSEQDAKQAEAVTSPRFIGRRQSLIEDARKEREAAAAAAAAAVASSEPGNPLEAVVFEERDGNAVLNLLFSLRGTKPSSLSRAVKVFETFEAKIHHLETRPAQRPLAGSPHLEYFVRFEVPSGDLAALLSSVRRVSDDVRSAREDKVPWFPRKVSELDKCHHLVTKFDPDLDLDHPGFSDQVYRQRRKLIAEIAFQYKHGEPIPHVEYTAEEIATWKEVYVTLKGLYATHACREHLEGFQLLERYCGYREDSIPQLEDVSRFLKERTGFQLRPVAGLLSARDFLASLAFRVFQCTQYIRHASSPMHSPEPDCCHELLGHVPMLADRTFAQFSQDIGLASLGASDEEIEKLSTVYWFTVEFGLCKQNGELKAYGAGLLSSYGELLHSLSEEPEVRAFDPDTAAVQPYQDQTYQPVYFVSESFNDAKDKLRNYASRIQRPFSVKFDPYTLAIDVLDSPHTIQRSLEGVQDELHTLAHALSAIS
compound,measurement,setting,value
COc1ccc(C(=O)O[C@H]2CC[C@@]3(C)[C@@H]4CC[C@H]5[C@]6(O)C[C@H](O)[C@@]7(O)[C@@H](CN8C[C@@H](C)CC[C@H]8[C@@]7(C)O)[C@]6(O)C[C@@]53O[C@]24O)cc1OC [VERATRIDINE],IC50,[1],10.7 µM
C=C(C)[C@@H]1[C@H]2OC(=O)[C@@H]1[C@]1(O)C[C@H]3O[C@]34C(=O)O[C@H]2[C@]14C [PICROTOXININ],IC50,[2],385 nM
NC[C@@H]1O[C@H](O[C@H]2[C@@H](O)[C@H](O[C@@H]3[C@@H](O)[C@H](N)C[C@H](N)[C@H]3O[C@H]3O[C@H](CN)[C@@H](O)[C@H](O)[C@H]3N)O[C@@H]2CO)[C@H](N)[C@@H](O)[C@@H]1O [FRAMYCETIN],IC50,[3],7.9 nM
COc1ccc(Cl)cc1C(=O)NCCc1ccc(S(=O)(=O)NC(=O)NC2CCCCC2)cc1 [GLYBURIDE],IC50,[4],1.1 nM
COc1ccc(CCN(C)CCCC(C#N)(c2cc(OC)c(OC)c(OC)c2)C(C)C)cc1OC (stereo not drawn) [GALLOPAMIL],IC50,[5],23 nM
NCCc1c[nH]c2ccc(O)cc12 [SEROTONIN],IC50,[6],2.7 nM
CC(C)C[C@H](NC(=O)[C@H](CCCCN)NC(=O)[C@H](CCCNC(=N)N)NC(=O)[C@H](C)NC(=O)[C@H](CO)NC(=O)[C@H](CCCCN)NC(=O)[C@H](CCCNC(=N)N)NC(=O)[C@H](C)NC(=O)CNC(=O)[C@@H](NC(=O)[C@H](Cc1ccccc1)NC(=O)CNC(=O)CNC(=O)[C@@H](N)Cc1ccccc1)[C@@H](C)O)C(=O)N[C@@H](C)C(=O)N[C@@H](CC(N)=O)C(=O)N[C@@H](CCC(N)=O)C(=O)O [NOCICEPTIN],ED50,[7],10.3 nmol
same,MED,[8],55 nmol
same,ED50,[9],inactive
same,MED,[10],inactive
same,ED50,[11],inactive
same,MED,[12],inactive
same,ED50,[13],inactive
same,MED,[14],inactive
same,Activity,[15],inactive
same,Activity,[16],inactive
same,Activity,[17],Dose-dependent effect
same,Activity,[18],Dose-dependent effect
C=C[C@@]1(C)CC(=O)[C@]2(O)[C@@]3(C)[C@@H](O)CCC(C)(C)[C@@H]3[C@H](O)[C@H](OC(C)=O)[C@@]2(C)O1 [COLFORSIN],EC50,[19],4.3 µM
CN1CCN(c2nc3ccccc3n2C2CCN(C3(C(=O)O)CCCCCCC3)CC2)CC1,Ki,[20],> 250 nM
C[C@@H](O)[C@@H]1NC(=O)[C@H](Cc2ccc(O)cc2)NC(=O)[C@@H]2C[C@@H](O)CN2C(=O)[C@H](CC(N)=O)NC(=O)[C@@H]2CSSC[C@@H]3NC(=O)[C@H](CO)NC(=O)[C@H](CO)NC(=O)CNC(=O)[C@@H]4C[C@@H](O)CN4C(=O)[C@H](CO)NC(=O)[C@H](CCCCN)NC(=O)[C@@H](N)CSSC[C@H](NC(=O)[C@H](CSSC[C@@H](C(=O)N[C@@H](Cc4ccc(O)cc4)C(N)=O)NC(=O)[C@H](CCCNC(=N)N)NC(=O)[C@H](CCCCN)NC1=O)NC(=O)[C@H](CC(N)=O)NC(=O)[C@H](Cc1ccc(O)cc1)NC(=O)[C@H](CO)NC(=O)[C@H]([C@@H](C)O)NC(=O)[C@@H]1C[C@@H](O)CN1C(=O)[C@H](CO)NC3=O)C(=O)N[C@@H](CCCNC(=N)N)C(=O)N[C@@H](CO)C(=O)N2,IC50,[21],0.045 nM
C[N+]1(C)CCO[C@@](O)(c2ccc(-c3ccc([C@@]4(O)C[N+](C)(C)CCO4)cc3)cc2)C1 [HEMICHOLINIUM DIBROMIDE],IC50,[22],7.7 nM
CC1(C)CN(c2nc3ccccc3n2C2CCN(C3(CO)CCCCCCC3)CC2)CCN1,ED50,[23],inactive
same,MED,[24],inactive
same,Activity,[25],inactive
same,EC50,[26],23 nM
same,Ki,[20],4.54 nM
OCC1(N2CCC(n3c(-c4ccc(F)c(Cl)c4)nc4ccccc43)CC2)CCCCCCC1,EC50,[27],1220 nM
same,EC50,[26],8.9 nM
same,Ki,[20],0.73 nM
CC1CN(c2nc3ccccc3n2C2CCN(C3(CO)CCCCCCC3)CC2)CCN1 (stereo not drawn),EC50,[28],366 nM
same,EC50,[27],1770 nM
same,EC50,[26],38 nM
same,half-life at 1 µM,[29],19.7 min
same,Ki,[20],0.96 nM
N[C@@H](Cc1ccc(O)c(I)c1)C(=O)O [IOTYROSINE],IC50,[30],1.4 nM
O=C(O)C1CCCNC1 (stereo not drawn) [NIPECOTIC ACID],IC50,[31],7.17 µM
CN1CCN(c2nc3ccccc3n2C2CCN(C3(CO)CCCCCCC3)CC2)CC1,EC50,[28],18 nM
same,EC50,[26],17 nM
same,half-life at 1 µM,[29],9.5 min
same,Ki,[20],4.29 nM
OCC1(N2CCC(n3c(-c4ccc(F)c(Cl)c4)nc4ccccc43)CC2)CCCCC1,EC50,[26],53 nM
same,Ki,[20],4.29 nM
OCC1(N2CCC(n3c(-c4ccc(Cl)cc4)nc4ccccc43)CC2)CCCCCCC1,EC50,[27],> 10000 nM
same,EC50,[26],9.1 nM
same,Ki,[20],0.15 nM
O=C(O)[C@@H]1C[C@H](CP(=O)(O)O)CCN1 [SELFOTEL],IC50,[32],1620 nM
CCOC(=O)C1=C(C)NC(C)=C(C(=O)OC)C1c1cccc([N+](=O)[O-])c1 (stereo not drawn) [NITRENDIPINE],IC50,[33],1.3 nM

# Reference: ChEMBL document CHEMBL1649335, “Discovery of {1-[4-(2-{hexahydropyrrolo[3,4-c]pyrrol-2(1H)-yl}-1H-benzimidazol-1-yl)piperidin-1-yl]cyclooctyl}methanol, systemically potent novel non-peptide agonist of nociceptin/orphanin FQ receptor as analgesic for the treatment of neuropathic pain: design, synthesis, and structure-activity …” (Bioorg Med Chem, 2010)
